Results as given in US11401508B2, “Methods for isolating human cardiac ventricular progenitor cells” (Procella Therapeutics AB, priority 2016, dated 2022).

Experiments:
Porcn = target: T1, Porcn (Homo sapiens, UniProt Q9H237); settings: read-out: IC50 (Porcn inhibitor); cited from earlier work
T1 sequence (Q9H237 1-461): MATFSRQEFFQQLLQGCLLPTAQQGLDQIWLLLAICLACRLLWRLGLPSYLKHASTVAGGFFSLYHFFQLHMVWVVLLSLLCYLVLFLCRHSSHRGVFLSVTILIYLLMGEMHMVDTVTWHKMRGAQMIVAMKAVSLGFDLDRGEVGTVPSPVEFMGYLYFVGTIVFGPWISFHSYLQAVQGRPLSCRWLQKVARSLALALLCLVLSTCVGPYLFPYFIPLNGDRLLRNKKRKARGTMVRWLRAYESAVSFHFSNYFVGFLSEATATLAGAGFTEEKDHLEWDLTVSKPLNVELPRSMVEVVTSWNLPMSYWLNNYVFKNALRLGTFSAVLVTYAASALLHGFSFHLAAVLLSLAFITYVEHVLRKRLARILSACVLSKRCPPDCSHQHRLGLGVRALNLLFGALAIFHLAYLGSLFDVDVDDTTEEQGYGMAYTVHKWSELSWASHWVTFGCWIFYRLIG

hPSCs = assay: Cardiac differentiation of hPSCs, lineage markers by flow cytometry and immunostaining; type: cell-based, human
Protocol: Cells were then cultured in mTeSR1, changed daily.
Data were collected on a FACSCaliber flow cytometer (Beckton Dickinson) and analyzed using FlowJo.

GSK-3 α = GSK-3 α (Homo sapiens, UniProt P49840); settings: cited from earlier work
GSK-3 α, sequence (P49840 whole entry, species assumed): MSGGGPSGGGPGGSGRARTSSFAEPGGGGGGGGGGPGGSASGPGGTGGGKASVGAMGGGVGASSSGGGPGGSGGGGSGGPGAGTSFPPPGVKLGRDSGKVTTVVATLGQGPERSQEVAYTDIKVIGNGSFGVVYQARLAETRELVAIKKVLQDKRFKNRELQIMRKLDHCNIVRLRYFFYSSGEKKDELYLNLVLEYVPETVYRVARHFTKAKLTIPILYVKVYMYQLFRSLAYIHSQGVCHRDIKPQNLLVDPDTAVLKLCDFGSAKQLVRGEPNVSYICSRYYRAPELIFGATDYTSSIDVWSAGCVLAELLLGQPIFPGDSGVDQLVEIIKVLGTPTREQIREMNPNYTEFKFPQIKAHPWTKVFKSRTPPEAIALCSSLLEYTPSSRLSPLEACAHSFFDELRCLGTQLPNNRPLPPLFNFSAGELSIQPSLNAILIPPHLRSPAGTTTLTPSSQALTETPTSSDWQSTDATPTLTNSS

GSK-3, β = GSK-3, β (Homo sapiens, UniProt P49841); settings: read-out: IC50 GSK-3 β; cited from earlier work
GSK-3, β, sequence (P49841 whole entry, species assumed): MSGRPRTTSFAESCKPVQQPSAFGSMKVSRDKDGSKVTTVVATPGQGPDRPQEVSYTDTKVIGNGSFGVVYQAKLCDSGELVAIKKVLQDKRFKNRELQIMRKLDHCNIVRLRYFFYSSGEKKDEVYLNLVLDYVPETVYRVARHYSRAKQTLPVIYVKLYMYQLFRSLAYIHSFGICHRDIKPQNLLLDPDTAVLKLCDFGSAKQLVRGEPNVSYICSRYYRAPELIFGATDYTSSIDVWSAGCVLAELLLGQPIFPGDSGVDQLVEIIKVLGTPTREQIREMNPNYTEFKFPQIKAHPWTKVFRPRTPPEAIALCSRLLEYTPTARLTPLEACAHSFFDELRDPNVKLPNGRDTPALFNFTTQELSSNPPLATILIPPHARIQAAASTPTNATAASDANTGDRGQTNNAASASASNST

[1] = test system: mature human muscle organ; assay: Force generation of muscle strips from HVP-derived human muscle organ on electric stimulation; settings: 5-month graft, p<0.05 compared to control
Source text: Animals were sacrificed and the engrafted kidneys were removed for further analysis. The 5-month human graft was a hemisphere structure with the radius of 0.4 cm (diameter of 0.8 cm). […] In addition, muscle trips taken from our mature human muscle organ generated forces (0.36±0.04 mN) in response to electric stimulation and increased their force generation after treatment with a β-adrenergic agonist isoprenaline (0.51±0.02 mN, p<0.05 compared to control). Taken together, these studies indicate that the HVPs are capable of generating a fully functional, mature human ventricular muscle organ in vivo via a cell autonomous pathway, i.e., without the addition of other cells, genes, matrix proteins, or biomaterials.

Cc1ccc2nc(NC(=O)CSc3nc4c(c(=O)n3-c3ccccc3)SCC4)sc2c1 [IWP2]
IC50 (Porcn): 27 nM

CHIR98014
hPSCs expressing the mesoderm marker Brachyury (hPSCs; after 24 hour treatment): more than 99%
differentiated cells expressing Mesp1 (cardiac mesoderm) (hPSCs; three days after treatment): more than 95%
IC50 (GSK-3 α): 0.65 nM
IC50 (GSK-3, β): 0.58 nM

Cc1cc(-c2ccc(CC(=O)Nc3ccc(-c4cccnc4)cc3)cc2)ccn1 [Wnt-059]
ventricular progenitor differentiation from mesoderm cells (hPSCs; 48-hour treatment): enhanced ventricular progenitor differentiation
IC50 (Porcn): 0.074 nM

CC(C)NCC(O)c1ccc(O)c(O)c1 (centres unmarked) [isoprenaline]
force generated by muscle strips after treatment with β-adrenergic agonist [1]: 0.51±0.02 mN
